The structures appear in SMILES notation.

T1 sequence (P32245 whole entry): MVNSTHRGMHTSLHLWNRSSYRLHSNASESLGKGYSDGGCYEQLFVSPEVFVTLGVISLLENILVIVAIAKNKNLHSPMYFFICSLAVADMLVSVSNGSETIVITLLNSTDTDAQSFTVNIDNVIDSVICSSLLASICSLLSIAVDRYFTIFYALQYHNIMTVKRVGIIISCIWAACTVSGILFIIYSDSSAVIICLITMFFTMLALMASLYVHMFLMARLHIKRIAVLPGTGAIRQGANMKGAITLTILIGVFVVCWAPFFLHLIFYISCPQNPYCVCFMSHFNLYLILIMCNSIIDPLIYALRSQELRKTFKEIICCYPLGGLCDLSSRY

The first experiment has as its target T1, human MC-4R (Homo sapiens, UniProt P32245).
T1 construct: expressed in transfected cells
Nature of the experiment: Biological Assay: inhibition of AgRP functional interaction with MC-4R in presence of αMSH (cAMP production). Type of experiment: cell-based. Particulars: Average EC50 (nM) in Biological Assay, HEK293 cells expressing human MC-4R, AgRP83-132 and αMSH present. Here is the method:
The following method is illustrative of techniques that may be employed to measure the ability of the compounds of Formula (I) to functionally modulate the binding of AgRP to melanocortin receptors. In particular, the assay below measures the ability of compounds of Formula (I) or pharmaceutically acceptable salts thereof to functionally modulate the binding of AgRP to MC-4R in the presence of a MC-4R agonist, such as alpha-MSH.
HEK293 cells stably expressing human MC-4R receptors were grown in high glucose Dulbecco's Modified Eagle Medium (DMEM) with 4500 mg glucose/L, L-glutamine, NaHCO3, pyrdoxin HCl, 10 mM HEPES (pH 7.4), 0.1 mM NEAA (non-essential amino acid medium) (GIBCO Cat#11140-050), 10% fetal bovine serum and 700 μg/mL G418. Cells were grown in T-225 flasks at 37° C. with CO2 and humidity control.
On the day of assay, cells were washed twice with phosphate buffered saline without calcium and magnesium (PBS) and incubated with 10 mL PBS until the cells were detached from the flask. The detached cells were centrifuged at 240 g for 5 min. The cell pellet was re-suspended in assay buffer (Earle's balanced salt solution (Sigma E3024) supplemented with 10 mM HEPES, pH 7.4, 0.5 mM IBMX and protease inhibitor cocktail (Roche, 1 complete tablet/75 mL buffer)).
The inhibitory or enhancement effect of compounds on AgRP activity was measured in a multi-component assay containing testing compounds, AgRP83-132 (human, Phoenix Pharma, cat no. 003-53), cells expressing MC-4R, and αMSH (Bachem, cat no. H-1075). Test compounds, AgRP and αMSH were diluted with assay buffer. Test compounds and AgRP were mixed to 4 times of the final concentration and incubated at room temperature for 30 min. Five μL of testing compound/AgRP solution followed with 10 μL of cells (20,000 cells/well) were added to each well of a 384-well reaction plate before 5 μL of αMSH was added. Cells were stimulated with αMSH for an additional 30 min at 37° C.
Stimulation of cells was stopped by adding a lysis buffer and cells were lysed. The intracellular concentration of cAMP may be measured by various techniques known to one of skill in the art including, but not limited to, fluorescence polarization (FP) and time-resolved fluorescence (TRF).
The inhibition was shown by an increase in MC-4R mediated cAMP production.
Take `CCc1ccc(CN(CCC(=O)O)c2nc(C3CCC(CC)CC3)cs2)s1` (centres unmarked) [Example 20, 3-[[4-(4-Ethyl-cyclohexyl)-thiazol-2-yl]-(5-ethyl-thiophen-2-ylmethyl)-amino]-propionic acid]: the concentration giving a half-maximal response (EC50) was 389 nM.

`CC(C)C1CCC(c2csc(N(CCC(=O)O)Cc3ccc(S(C)(=O)=O)s3)n2)CC1` (centres unmarked) [Example 37, 3-[[4-(4-Isopropyl-cyclohexyl)-thiazol-2-yl]-(5-methanesulfonyl-thiophen-2-ylmethyl)-amino]-propionic acid]: the EC50 came out at 524 nM.

Staying with this experiment, now noted: HEK293 cells expressing human MC-4R, AgRP83-132 and αMSH present; read-out: Average EC50 (nM) in Biological Assay.
For `Cc1ccc(CN(CCC(=O)O)c2nc(C3CCC4(CCCCC4)CC3)cs2)s1` [Example 63, 3-[(5-methyl-thiophen-2-ylmethyl)-(4-spiro[5.5]undec-3-yl-thiazol-2-yl)-amino]-propionic acid], the EC50 amounted to 283 nM.

For `CCc1ccc(CN(CCC(=O)O)c2nc(C3CC4CCC3C4)cs2)s1` (centres unmarked) [Example 1, Sodium; 3-[(4-bicyclo[2.2.1]hept-2-yl-thiazol-2-yl)-(5-ethyl-thiophen-2-ylmethyl)-amino]-propionate], the EC50 worked out at 126 nM.

`Cc1ccc(CN(CCC(=O)O)c2nc(C3Cc4ccccc4C3)cs2)s1` [Example 12, 3-[(4-Indan-2-yl-thiazol-2-yl)-(5-methyl-thiophen-2-ylmethyl)-amino]-propionic acid]: the EC50 is 384 nM.

As for `CCc1ccc(CN(CCC(=O)O)c2nc(C3CCC(F)(F)CC3)cs2)s1` [Example 24, Sodium; 3-[[4-(4,4-difluoro-cyclohexyl)-thiazol-2-yl]-(5-ethyl-thiophen-2-ylmethyl)-amino]-propionate], the EC50 was determined as 79 nM.

In the case of `CCC1(c2csc(N(CCC(=O)O)Cc3ccc(C)s3)n2)CCC(C)CC1` (centres unmarked) [Example 45, Sodium; 3-[[4-(1-ethyl-4-methyl-cyclohexyl)-thiazol-2-yl]-(5-methyl-thiophen-2-ylmethyl)-amino]-propionate], the EC50 was determined as 159 nM.

On to `CCc1ccc(CN(CCC(=O)O)c2nc(C3CCC(OC)CC3)cs2)s1` (centres unmarked) [Example 32, 3-{(5-Ethyl-thiophen-2-ylmethyl)-[4-(4-methoxy-cyclohexyl)-thiazol-2-yl]-amino}-propionic acid], for which the EC50 was determined as 2280 nM.

Regarding `Cc1ccc(CN(CCC(=O)O)c2nc(C3(c4ccc(F)cc4)CCCC3)cs2)s1` [Example 34, Sodium; 3-[{4-[1-(4-fluoro-phenyl)-cyclopentyl]-thiazol-2-yl}-(5-methyl-thiophen-2-ylmethyl)-amino]-propionate], the EC50 is 269 nM.

Take `Cc1ccc(C2(c3csc(N(CCC(=O)O)Cc4ccc(C)s4)n3)CCCC2)cc1` [Example 35, Sodium; 3-{(5-methyl-thiophen-2-ylmethyl)-[4-(1-p-tolyl-cyclopentyl)-thiazol-2-yl]-amino}-propionate]: the EC50 came to 132 nM.

On to `CCc1ccc(CN(CCC(=O)O)c2nc(C3CCc4ccccc4C3)cs2)s1` (centres unmarked) [Example 13, 3-{(5-Ethyl-thiophen-2-ylmethyl)-[4-(1,2,3,4-tetrahydro-naphthalen-2-yl)-thiazol-2-yl]-amino}-propionic acid], for which the concentration giving a half-maximal response (EC50) turned out to be 528 nM.

In the case of `CSc1ccc(CN(CCC(=O)O)c2nc(C3CCC(C(C)(C)C)CC3)cs2)s1` (centres unmarked) [Example 29, Sodium; 3-[[4-(4-tert-butyl-cyclohexyl)-thiazol-2-yl]-(5-methylsulfanyl-thiophen-2-ylmethyl)-amino]-propionate], the EC50 was 427 nM.

As for `Cc1ccc(CN(CCC(=O)O)c2nc(C3CC(C)(C)CC(C)(C)C3)cs2)s1` [Example 53, 3-{(5-methyl-thiophen-2-ylmethyl)-[4-(3,3,5,5-tetramethyl-cyclohexyl)-thiazol-2-yl]-amino}-propionic acid], the EC50 is 307 nM.

For the compound `Cc1cc(CN(CCC(=O)O)c2nc(C3CC4CCCCC4C3)cs2)c(C)s1` (centres unmarked) [Example 59, 3-{(2,5-Dimethyl-thiophen-3-ylmethyl)-[4-(octahydro-inden-2-yl)-thiazol-2-yl]-amino}-propionic acid], the EC50 worked out at 160 nM.

As for `CCc1ccc(CN(CCC(=O)O)c2nc(C3CCC(C(F)(F)F)CC3)cs2)s1` (centres unmarked) [Example 17, 3-{(5-Ethyl-thiophen-2-ylmethyl)-[4-(4-trifluoromethyl-cyclohexyl)-thiazol-2-yl]-amino}-propionic acid], the EC50 was found to be 259 nM.

`Cc1ccc(CN(CCC(=O)O)c2nc(CC3CCC(C)CC3)cs2)s1` (centres unmarked) [Example 16, 3-[[4-(4-Methyl-cyclohexylmethyl)-thiazol-2-yl]-(5-methyl-thiophen-2-ylmethyl)-amino]-propionic acid]: the EC50 is 205 nM.

Consider `CC(C)(C)C1CCC(c2csc(N(CCC(=O)O)Cc3ccc(S(C)(=O)=O)s3)n2)CC1` (centres unmarked) [Example 36, 3-[[4-(4-tert-Butyl-cyclohexyl)-thiazol-2-yl]-(5-methanesulfonyl-thiophen-2-ylmethyl)-amino]-propionic acid], for which the EC50 is 267 nM.

On to `Cc1ccc(CN(CCC(=O)O)c2nc(CC3CCC(C)(C)CC3)cs2)s1` [Example 64, 3-[[4-(4,4-dimethyl-cyclohexylmethyl)-thiazol-2-yl]-(5-methyl-thiophen-2-ylmethyl)-amino]-propionic acid], for which the EC50 is 90 nM.

On to `CCc1ccc(CN(CCC(=O)O)c2nc(CC3CCC(C)CC3)cs2)s1` (centres unmarked) [Example 15, 3-{(5-Ethyl-thiophen-2-ylmethyl)-[4-(4-methyl-cyclohexylmethyl)-thiazol-2-yl]-amino}-propionic acid], for which the EC50 stood at 221 nM.

For `CCCC1CCC(c2csc(N(CCC(=O)O)Cc3ccc(CC)s3)n2)CC1` (centres unmarked) [Example 22, 3-{(5-Ethyl-thiophen-2-ylmethyl)-[4-(4-propyl-cyclohexyl)-thiazol-2-yl]-amino]-propionic acid], the concentration for a half-maximal effect (EC50) was determined as 394 nM.

On to `Cc1cc(CN(CCC(=O)O)c2nc(C3(CC(C)C)CCCC3)cs2)c(C)s1` [Example 44, 3-{(2,5-Dimethyl-thiophen-3-ylmethyl)-[4-(1-isobutyl-cyclopentyl)-thiazol-2-yl]-amino}-propionic acid], for which the EC50 came to 191 nM.

Turning to `Cc1ccc(CN(CCC(=O)O)c2nc(C3CCC4(CCCC4)CC3)cs2)s1` [Example 62, 3-[(5-methyl-thiophen-2-ylmethyl)-(4-spiro[4.5]dec-8-yl-thiazol-2-yl)-amino]-propionic acid], the EC50 came to 321 nM.

With `CCc1ccc(CN(CCC(=O)O)c2nc(C3(CC(C)C)CCCC3)cs2)s1` [Example 43, 3-{(5-Ethyl-thiophen-2-ylmethyl)-[4-(1-isobutyl-cyclopentyl)-thiazol-2-yl]-amino}-propionic acid], the EC50 turned out to be 173 nM.

For the compound `Cc1ccc(CN(CCC(=O)O)c2nc(C3CCc4ccccc4C3)cs2)s1` (centres unmarked) [Example 14, 3-{(5-Methyl-thiophen-2-ylmethyl)-[4-(1,2,3,4-tetrahydro-naphthalen-2-yl)-thiazol-2-yl]-amino]-propionic acid], the EC50 is 602 nM.

With `Cc1ccc(CN(CCC(=O)O)c2nc(C3(C)CCC(c4ccccc4)CC3)cs2)s1` (centres unmarked) [Example 51, 3-[[4-(1-Methyl-4-phenyl-cyclohexyl)-thiazol-2-yl]-(5-methyl-thiophen-2-ylmethyl)-amino]-propionic acid], the EC50 was determined as 143 nM.

In the case of `Cc1ccc(CN(CCC(=O)O)c2nc(C3CCC(C(C)(C)C)CC3)cs2)s1` (centres unmarked) [Example 27, 3-[[4-(4-tert-Butyl-cyclohexyl)-thiazol-2-yl]-(5-methyl-thiophen-2-ylmethyl)-amino]-propionic acid], the EC50 was 114 nM.

Source of the values: patent US8563742B2, “Substituted aminothiazole derivatives, pharmaceutical compositions, and methods of use” (High Point Pharmaceuticals, LLC, priority 2008, dated 2013).
